Legend:
[1] = test system: MRSA; format: cell-based, Staphylococcus aureus
Description: To test the effects of peptides, overnight cultures of wild-type MRSA and MRSA^ΔnorA in TSB media were diluted 1:1,000 in TSB with varying concentrations of peptides, in the presence or the absence of norfloxacin (12.5 μg/ml). All the peptide concentrations contained equal amount of the DMSO vehicle. OD600nm was measured as a function of time in a BioScreen C device at 37° C. with shaking between measurements every 15 min. Three independent experiments were acquired; reported errors reflect the standard deviation among the independent experiments.

[2] = molecular target: T1, NorA (Staphylococcus aureus, UniProt Q5HHX4); experiment: Competitive MST peptide binding experiment (NPI-1 versus labelled Fab36); parameters: species or system S. aureus; conditions: NorA 6 μM, Fab36 40 nM, NPI-1 1.5 nM to 50 μM
T1 construct: made in house; host or cells: C43 (DE3) E. coli
Description: Competitive peptide binding experiments were performed with MST using fluorescently labelled Fab36 as described above. These experiments used fixed concentrations of NorA in PMAL-C8 amphipol at 6 μM and Fab36 at 40 nM, and a variable concentration of NPI-1 from 1.5 nM to 50 μM. Competitive peptide binding experiments were collected with three replicates.

[3] = molecular target: T1, NorA; experiment: Fluorescence polarization (FP) binding of FITC-NPI-1 to NorA; parameters: species or system S. aureus
Description: Amphipol-purified NorA underwent an additional round of SEC to remove free amphipol. Fluorescence polarization (FP) experiments were performed on a DTX 880 Multimode Detector (Beckman) at 25° C. with excitation and emission wavelengths set to 485 and 525 nm, respectively. For NorA binding assays, increasing concentrations of NorA were added to wells of 15 nM FITC-NPI-1 in 100 μL solutions of 20 mM Tris pH 7.5, 100 mM NaCl, 10% glycerol, 0.1% pluronic acid, and 1.2% DMSO on black, U-shape 96 well plates (BRANDplates). All samples were incubated for 15 min on a shaking plate. FP values as a function of NorA concentration ([L]) were fit using the following quadratic binding equation in GraphPad Prism to obtain the binding affinity (Kd) for FITC-NPI-1 ([P]T).
Ymax and Yoffset are normalization parameters. The reported Kd value and error for FITC-NPI-1 reflects the average and standard deviation among seven independent experiments, each performed in triplicate.

[4] = test system: MRSA and MRSA^ΔnorA; experiment: Bacteriostatic/bactericidal effect of norfloxacin on MRSA (CFU); format: cell-based, Staphylococcus aureus; conditions: norfloxacin 0, 12.5 or 25 μg/ml; 1, 2, 4 hr
Description: MRSA or MRSA^ΔnorA were cultured overnight in 5 ml TSB and diluted 1:1,000 with TSB the next morning. In a round-bottom 96-well plate, 50 μl of the diluted culture was mixed with 50 μl of TSB supplemented with norfloxacin. The final concentration of MRSA or MRSA^ΔnorA was ˜1×10^6 CFU/ml and norfloxacin was 0, 12.5, or 25 μg/ml. The plate was incubated while shaking at 37° C. At 0 hr and after 1, 2, or 4 hr of incubation, CFUs of MRSA or MRSA^ΔnorA were enumerated by serially diluting in PBS and spot plating on TSA plates.

[5] = test system: MRSA^ΔnorA; experiment: Norfloxacin MIC assays in MRSA (MIC test strips); format: cell-based, Staphylococcus aureus; conditions: MRSA^ΔnorA expressing wild-type NorA relative to MRSA^ΔnorA alone
Description: Wild-type USA300 strain JE2 (“MRSA”) (Fey et al., “A Genetic Resource for Rapid and Comprehensive Phenotype Screening of Nonessential Staphylococcus aureus Genes,” Mbio 4:e00537-00512 (2013), which is hereby incorporated by reference in its entirety) and isogenic strains, norA::bursa (MRSA^ΔnorA) containing empty vector, or hemin-inducible NorA variants were grown overnight at 37° C. in TSB media supplemented with 10 μg/ml chloramphenicol and 1 μM hemin. The cultures were diluted to approximately 1×10^8 CFU/ml and evenly spread on TSA plates supplemented with 5 μg/ml chloramphenicol and 1 μM hemin. The norfloxacin MIC test strips (Liofilchem) were placed in the center of the plate and the plates were incubated for 24 hr at 37° C. The MIC values were read at the intersection of the inhibition eclipse and the strip. At least two independent MIC experiments were acquired for each sample; reported errors reflect the standard deviation among independent experiments.

[6] = molecular target: T1, NorA; experiment: FP competition binding experiment with norfloxacin; parameters: species or system S. aureus; conditions: NorA 50 nM, FITC-NPI-1 15 nM, norfloxacin 10 nM and 2 mM
Description: FP competition binding experiments with norfloxacin were performed using FITC-NPI-1 as described above. These experiments used a fixed concentration of NorA in PMAL-C8 amphipol at 50 nM and FITC-NPI-1 at 15 nM with norfloxacin concentrations of 10 nM and 2 mM in 100 μL solutions of 20 mM Tris pH 7.5, 100 mM NaCl, 10% glycerol, 0.1% pluronic acid, and 1.2% DMSO. A control experiment was performed in the same manner but in the absence of NorA. Four independent trials of FP experiments were performed, each in triplicate.

T1 sequence (Q5HHX4 whole entry): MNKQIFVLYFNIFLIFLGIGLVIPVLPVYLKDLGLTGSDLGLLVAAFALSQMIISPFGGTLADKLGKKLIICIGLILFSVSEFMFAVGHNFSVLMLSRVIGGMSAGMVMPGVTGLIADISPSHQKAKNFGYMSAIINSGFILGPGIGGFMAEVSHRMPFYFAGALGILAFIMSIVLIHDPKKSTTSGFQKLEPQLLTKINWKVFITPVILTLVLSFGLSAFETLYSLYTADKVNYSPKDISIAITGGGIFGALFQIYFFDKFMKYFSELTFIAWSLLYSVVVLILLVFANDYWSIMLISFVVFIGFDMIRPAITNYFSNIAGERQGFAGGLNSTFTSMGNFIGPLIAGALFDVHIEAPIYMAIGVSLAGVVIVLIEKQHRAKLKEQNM

Row | Compound | IC50 ([1]; in the presence of 12.5 μg/ml norfloxacin, 10 hr timepoint, read-out: IC50 growth inhibition of MRSA) [nM] | growth of MRSA in the absence of norfloxacin ([1]; peptide alone, no norfloxacin) | displacement of bound Fab36 from NorA [2] | Kd [3] [nM] | greater affinity to NorA ([3]; NPI-1 relative to Fab36) [fold] | effect on the growth of MRSA and MRSA^ΔnorA [4] | greater norfloxacin MIC [5] [fold] | competition with NPI-1 binding to NorA [6]
1 | H-YYYYAWRVGGYWR-NH2 [NPI-1, NH2-YYYYAWRVGGYWR-CONH2] | 720 ± 80 | did not inhibit the growth of MRSA | could displace bound Fab36 from NorA | 10 ± 5 | ~14 |  |  | 
2 | CCn1cc(C(=O)O)c(=O)c2cc(F)c(N3CCNCC3)cc21 [norfloxacin] |  |  |  |  |  | bacteriostatic effect | 20 | compete with NPI-1 binding to NorA
